In one assay the test system is TNF-α. In words: LPS-induced TNF-α production in hPBMCs (ELISA). In kind it is cell-based. The note with it: Homo sapiens; LPS-stimulated hPBMC. On the procedure: Primary screening—Human peripheral blood mononuclear cells (hPBMCs). TNF-α production by lipopolysaccharides (LPS) in hPBMCs was measured according to the method described by Jansky, L. et al (Physiol. Res. 52: 593-598, (2003)). Blood was collected from healthy donors into Potassium EDTA vacutainer tubes (BD vacutainer). The PBMCs were isolated using gradient centrifugation in Histopaque-1077 solution (Sigma). Isolated PBMCs were suspended in RPMI 1640 culture medium (Gibco BRL, Pasley, UK) containing 10% fetal bovine serum (FBS) (Hyclone, Utah, USA), 100 U/ml penicillin (Sigma Chemical Co. St Louis, Mo.) and 100 μg/ml streptomycin (Sigma Chemical Co. St Louis, Mo.). The cell concentration was adjusted to 1×10^6 cells/ml. The viability as determined by trypan blue dye exclusion was uniformly ≧98%. The cell suspension (100 μl) was added to the wells of a 96-well culture plate. Following cell plating, 79 μl of the culture medium and 1 μl of eight different concentrations of the test samples (final concentration 0.03, 0.1, 0.3, 1, 3, 10, 30, 100 μg/ml) dissolved in DMSO (dimethylsulfoxide, Sigma, Mo., USA) were added to the cells. The final concentration of DMSO was adjusted to 0.5%. The vehicle (0.5% DMSO) was used as control. Rolipram (100, 300 μM) was used as a standard. The plates were incubated for 30 min at 37° C. in an atmosphere of 5% CO2. Finally, 20 μl (10 μg/ml) per well of LPS, (Escherchia coli 0127:B8, Sigma Chemical Co., St. Louis, Mo.) was added, for a final concentration of 1 μg/ml. […] The % inhibition was recorded. Percent cytotoxicity of the test samples compared to control was evaluated.
The effect of the plant extract on the proinflammatory cytokines: TNF-α, interleukin-1β (IL-1β), interleukin-6 (IL-6) and interleukin-8 (IL-8) was measured using the supernatants generated in the primary screening assay. […]
The effect of the Compound 1, on the proinflammatory cytokines: TNF-α interleukin-1β (IL-1β), interleukin-6 (IL-6) and interleukin-8 (IL-8) was measured using the supernatants generated in the primary screening assay. […]
(In general: In an ELISA, binding on a coated surface is turned into a signal by an enzyme label.)

A further assay concerns IL-6. Description: IL-6 production by synovial cells from a RA patient. It counts as cell-based. The note with it: Homo sapiens, Synovial cell, 10 hours. As for the experimental part:
(§1) Cytokine production by synovial cells obtained from a rheumatoid arthritis (RA) patient undergoing knee replacement surgery was measured according to the method described by Brennan, F. M. et al (The Lancet. July 29: 244-247, (1989)). The synovial membrane tissue was digested in DMEM (Gibco) containing 10% FBS, 100 U/ml penicillin and 100 μg/ml streptomycin, 4 mg/ml collagenase type I (Worthington), 1.5 μg/ml Dnase type I (Sigma) and 15 U/ml heparin and incubated at 37° C. for 3 hours. After incubation, the digested tissue was filtered through a 70-μm membrane and the cells washed 3 times in complete medium (DMEM with 10% FBS). The synovial cells were cultured at 1×10^6 cells/ml in presence/absence of the test sample for 10 hours. The supernatants were harvested by centrifugation and levels of the cytokines (TNF-α, IL-1β, IL-6, IL-8) measured by ELISA. To assess the cytotoxic effect of the plant extracts, the cellular viability test was performed using MTS reagent. The 50% inhibitory concentration (IC50) values were calculated by a nonlinear regression method using GraphPad software (Prism 3.03).
(§2) Effect on proinflammatory cytokines produced by synovial cells obtained from a RA patient was studied for compound 1 as described by procedure of example 8.

The subject of another assay is IL-8. In words: IL-8 production by synovial cells from a RA patient. It counts as cell-based. The note with it: Homo sapiens, Synovial cell, 10 hours. On the procedure:
as §1, §2

Assay [1] has as its system Collagen-induced arthritis (CIA). Description: Collagen-induced arthritis (CIA) in DBA/1J mice. It counts as in vivo. The note with it: compared to vehicle treated group; H&E and Safranin O staining. On the procedure: Male DBA/1J mice, aged 8-10 weeks, were immunized with 200 μg Collagen Type II as an emulsion in Freund's Complete Adjuvant, by an intradermal injection at the base of the tail. Twenty-one days later, the mice were administered a booster shot of 100 μg Collagen Type II. A set of naïve mice was also maintained alongside. From Day 23 onwards, the mice were assessed for the onset of rheumatoid arthritis using the Articular Index as a parameter. Mice with a minimum hind paw score of 2 were inducted into the study. Extract of example 1 was administered at a dose of 400 mpk (Milligram per kilogram body weight) by oral route twice daily for 12 days. Compound 1 was administered at a dose of 50 mpk and 100 mpk. by oral route twice daily for 12 days. Enbrel (3 mg/kg) was used as a standard and was given subcutaneous once daily. Paw volume and articular index were recorded daily. The data was analysed for statistical significance. On termination of the experiment the paws of the mice were processed for histopathological evaluation. Beneficial effect of extract of example 1 and compound 1 on pathology of arthritic (CIA) DBA/1J mice was evaluated. Microscopy was carried out after Hematoxylin and Eosin staining as well as Safranin O staining of synovial joints.

We go through one compound from patent US8206756B2, “Herbal composition for inflammatory disorders” (Piramal Life Sciences Limited, priority 2005, dated 2012).

A word on the IC50: it is the point on the concentration scale where inhibition reaches its midpoint. A higher IC50 goes with weaker potency in that assay.

With `C=C1C(=O)OC2C3=C(C)CCCC3(C)CCC12O` (stereo not shown) [Compound 1, 3a-hydroxy-5a,9-dimethyl-3-methylene-3a,4,5,5a,6,7,8,9b-octahydro-3H-naphtho[1,2-b]furan-2-one], the IC50 with TNF-α was 700 nM; in the assay with IL-6 it was 1400 nM; in the assay with IL-8, 10900 nM. Besides, the “Histopathological analysis of synovial joints” value in assay [1] was “beneficial effects in terms of reducing cartilage destruction, bone destruction and synovitis”.
